Data from US7196074B2, “Methods of making, using and pharmaceutical formulations comprising 7α, 11β-dimethyl-17β-hydroxyestra-4, 14-dien-3-one and 17 esters thereof” (The United States of America as represented by the …, priority 2000, dated 2007).

Assays:
Format in all cases: in vivo, Sprague-Dawley rats
ventral prostate weight [1] = assay: Oral androgenic potency, ventral prostate weight assay in orchidectomized immature rats (gavage daily for seven days); conditions: for oral activity relative to methyltestosterone (potency ratio): oral administration, summary statement, standard methyltestosterone; for oral androgenic activity, times as potent as methyltestosterone: gavage daily for 7 days in 10% ethanol/sesame oil (oily carrier), ventral prostate weight
Protocol: (§1) Immature (about 21-day-old) Sprague-Dawley rats were orchidectomized under anesthesia, and randomly assignee to groups of ten animals for each dose level of the active undergoing testing. Each active was dissolved in 10% ethanol/sesame oil and administered by gavage (oral) each day for seven days beginning on the date of the orchidectomy. The animals were sacrificed 24 hours after the last dose, and the ventral prostate and seminal vesicles were excised, cleaned of fat and connective tissue, blotted on moist filter paper and weighed to the nearest 0.1 mg. See, e.g., Hershberger, L. et al, Myotrophic Activity of 19-nortestosterone And Other Steroids Determined By Modified Levator And Muscle Method, Proc. Soc. Exptl. Biol. Med 83 175–180 (1953). Regression analysis was performed by conventional methods using a PROPHET data management system. See, e.g., Bliss, C., The Statistics of Bioassay (Academic Press, New York, 1952); Hollister, C., Nucleic Acids Res. 16 1873–75 (1988). Ventral prostate weight was used as the endpoint because it is the sensitive organ to androgenic stimulation.
as §1, with “(oral) or subcutaneous injection” for “(oral)”, “mg.” for “mg. See, e.g., Hershberger, L. et al, Myotrophic Activity of 19-nortestosterone And Other Steroids Determined By Modified Levator And Muscle Method, Proc. Soc. Exptl. Biol. Med 83 175–180 (1953).”, “system.” for “system. See, e.g., Bliss, C., The Statistics of Bioassay (Academic Press, New York, 1952); Hollister, C., Nucleic Acids Res. 16 1873–75 (1988).”
Immature (about 21-day-old) Sprague-Dawley rats were orchidectomized under anesthesia, and randomly assignee to groups of ten animals for each dose level of the active undergoing testing. Four dosage forms were prepared. The first two forms constituted a solution of each active in 10% ethanol/sesame oil. The third and fourth dosage forms constituted a suspension of each active in an aqueous carrier (as described in Example 2, supra). These dosage forms were then administered by gavage (oral) to separate animal groups each day for seven days beginning on the date of the orchidectomy. Each carrier was also administered (alone) to separate groups of animals as a control. The animals were sacrificed 24 hours after the last dose, and the ventral prostate and seminal vesicles were excised, cleaned of fat and connective tissue, blotted on moist filter paper and weighed to the nearest 0.1 mg. See, e.g., Hershberger, L. et al, Myotrophic Activity of 19-nortestosterone And Other Steroids Determined By Modified Levator And Muscle Method, Proc. Soc. Exptl. Biol. Med. 83 175–180 (1953). Regression analysis was performed by conventional methods using a PROPHET data management system. See, e.g., Bliss, C., The Statistics of Bioassay (Academic Press, New York, 1952); Hollister, C., Nucleic Acids Res. 16 1873–75 (1988). Ventral prostate weight was used as the endpoint because it is the sensitive organ to androgenic stimulation.
Immature (about 21 day old) Sprague male rats were orchidectomized under anesthesia, and randomly assignee to groups often animals for each dose level of the active undergoing testing. Animals were maintained under standard conditions of housing and had free access to food and water. Illumination was controlled for 14 hour periods of light and 10 hours of darkness. Each active was dissolved in 10% ethanol/sesame oil and administered by gavage (oral) each day for seven days beginning on the date of the orchidectomy. […]

ventral prostate weight [2] = assay: Subcutaneous androgenic potency, ventral prostate weight assay in orchidectomized immature rats (injection daily for seven days); conditions: ventral prostate weight assay following subcutaneous administration; alcohol of G = 1.0 (assigned); value is for the free alcohol of the listed ester
Protocol: as §1, with “(oral) or subcutaneous injection” for “(oral)”, “mg.” for “mg. See, e.g., Hershberger, L. et al, Myotrophic Activity of 19-nortestosterone And Other Steroids Determined By Modified Levator And Muscle Method, Proc. Soc. Exptl. Biol. Med 83 175–180 (1953).”, “system.” for “system. See, e.g., Bliss, C., The Statistics of Bioassay (Academic Press, New York, 1952); Hollister, C., Nucleic Acids Res. 16 1873–75 (1988).”
as §1, with “subcutaneous injection” for “gavage (oral)”, “Bid. Med.” for “Biol. Med”
Immature (about 22-day-old) Sprague-Dawley male rats were orchidectomized under anesthesia, and randomly assignee to groups of ten animals for each dose level of the active undergoing testing. […] Illumination was controlled for 14 hour periods of light and 10 hours of darkness.
Each active was administered by subcutaneous injection of 0.6 mg of test material in aqueous suspending vehicle (ASV) and/or an oily vehicle (10% ethanol/sesame oil) on the day of surgery. Testosterone enanthate in sesame oil was used as a standard. The ventral prostate and seminal vesicles were excised, cleaned of fat and connective tissue, blotted on moist filter paper and weighed to the nearest 0.1 mg. Regression analysis was performed by conventional methods using a PROPHET data management system. Ventral prostate weight was used as the endpoint because it is the sensitive organ to androgenic stimulation.

ventral prostate weight [3] = assay: Duration of androgenic activity after subcutaneous injection, ventral prostate weight over weeks in orchidectomized immature rats; conditions: for area under the curve (AUC, trapezoidal rule) of ventral prostate weight: 12 week period, FIG. 22
Protocol: Immature (about 21-day-old) Sprague-Dawley rats were orchidectomized under anesthesia, and randomly assignee to groups of ten animals for each dose level of the active undergoing testing. Each active was administered by subcutaneous injection each day for seven days beginning on the date of the orchidectomy. The animals were sacrificed 24 hours after the last dose, and the ventral prostate and seminal vesicles were excised, cleaned of fat and connective tissue, blotted on moist filter paper and weighed to the nearest 0.1 mg. Regression analysis was performed by conventional methods using a PROPHET data management system. Ventral prostate weight was used as the endpoint because it is the sensitive organ to androgenic stimulation.
Except for testosterone enanthate, each active was formulated in two different carriers: (1) an aqueous suspension and (2) in sesame oil. Testosterone enanthate was formulated using the sesame oil carrier only, because it exists as a liquid at room temperature and could not therefore be formulated as an aqueous suspension.
(§2) The carrier used to provide the aqueous suspension was formulated as follows: 1 g benzyl alcohol, 0.5 g sodium carboxylethyl cellulose 50, 0.376 g disodium hydrogen phosphate dihydrate, 1.495 g sodium dihydrogen phosphate dihydrate, with water for injection (WFI) being added to bring volume of the carrier up to 100 ml.
Each formulation was prepared at a concentration of 0.6 mg/0.2 ml.
Immature (about 21-day-old) Sprague-Dawley rats were orchidectomized under anesthesia, and randomly assignee to groups of 40 or more. Animals received a single subcutaneous injection of 0.6 mg of each ester in 0.2 ml of an aqueous suspending carrier and/or oily carrier (10% ethanol/90% sesame oil or ethyl oleate) on the date of the orchidectomy. In cases where the ester was not solid at room temperature, 10% ethanol/sesame oil or ethyl oleate was used as the carrier. In this example, the carrier used to provide the aqueous suspension was formulated as follows: 1 g benzyl alcohol, 0.5 g sodium carboxylethyl cellulose 50, 0.376 g disodium hydrogen phosphate dihydrate, 1.495 g sodium dihydrogen phosphate dihydrate, with water for injection (WFI) being added to bring volume of the carrier up to 100 ml.
Five animals from each group were sacrificed at weekly or biweekly intervals, and the ventral prostate and seminal vesicles were excised, cleaned of fat and connective tissue, blotted on moist filter paper and weighed to the nearest 0.1 mg.
Ventral prostate weight was used as the endpoint because it is the sensitive organ to androgenic stimulation. Regression analysis was performed by conventional methods using the PROPHET data management system previously identified.
Immature (about 21-day-old) Sprague-Dawley rats were orchidectomized under anesthesia, and randomly assignee to groups of 40 or more. Animals received a single subcutaneous injection of 0.6 mg of the undecanoate in 0.2 ml of an aqueous suspending carrier and/or oily carrier (10% ethanol/90% sesame oil containing 5 mg/ml chlorobutanol as a preservative, or ethyloleate) on the date of the orchidectomy. The enanthate ester was formulated using the 10% ethanol/sesame oil or ethyloleate carrier as a first standard, with the 10% ethanol/sesame oil carrier used as a second standard.
as §2, with “In this example, the” for “The”
Immature (about 21-day-old) Sprague-Dawley rats were orchidectomized under anesthesia, and randomly assignee to groups of 40 or more. […] The enanthate ester was formulated using the 10% ethanol/sesame oil or ethyloleate carrier as a first standard, with the 10% ethanol/sesame oil carrier used as a second standard.

Compound | oral activity relative to methyltestosterone (potency ratio) (ventral prostate weight [1]) | Androgenic Potency (activity of corresponding alcohol) (ventral prostate weight [2]) | further results
CCCCCCCCCCC(=O)O[C@H]1CC[C@H]2[C@H]3[C@H]([C@@H](C)C[C@]12C)[C@H]1CCC(=O)C=C1C[C@H]3C | about twice |  | 
CCCCCCCCCCC(=O)O[C@H]1CC=C2[C@H]3[C@H]([C@@H](C)C[C@@]21C)[C@H]1CCC(=O)C=C1C[C@H]3C | at least about twice |  | 
CCCCC1CCC(C(=O)O[C@H]2CC=C3[C@H]4[C@H]([C@@H](C)C[C@@]32C)[C@H]2CCC(=O)C=C2C[C@H]4C)CC1 (stereo partly shown) | at least about six times |  | 
CCCC[C@H]1CC[C@H](C(=O)O[C@H]2CC[C@H]3[C@H]4[C@H](CC[C@]23C)[C@H]2CCC(=O)C=C2C[C@H]4C)CC1 [A, 7α-Methyl-19-nortestosterone-17β-bucyclate] |  | 8.1^3 | 
CCCC[C@H]1CC[C@H](C(=O)O[C@H]2CC[C@H]3[C@H]4[C@H](CC[C@]23C)[C@H]2CCC(=O)C[C@@H]2C[C@H]4C)CC1 [B, 7α-Methyl-5α-dihydro-19-nortestosterone-17β-bucyclate] |  | 1.2 | 
CCCC[C@H]1CC[C@H](C(=O)O[C@H]2CC=C3[C@@H]4[C@H](C)CC5=CC(=O)CC[C@]5(C)[C@H]4CC[C@@]32C)CC1 [C, 7α-Methyl-14-dehydro-testosterone-17β-bucyclate] |  | 61.1 | 
CCCC[C@H]1CC[C@H](C(=O)O[C@H]2CC=C3[C@H]4[C@H](CC[C@@]32C)[C@H]2CCC(=O)C=C2C[C@H]4C)CC1 [CDB-4327A, 7α-Methyl-14-dehydro-19-nortestosterone-17β-bucyclate, reference compound] |  |  | ventral prostate weight over time after single subcutaneous injection (in words) (ventral prostate weight [3]; 0.6 mg in 0.2 ml oily carrier, up to 20 weeks, FIG. 9): surprising stimulation of ventral prostate size over the entire 20-week observation period
C[C@@H]1CC2=CC(=O)CC[C@@H]2[C@@H]2[C@@H]1C1=CC[C@H](O)[C@@]1(C)C[C@@H]2C [Compound III, 7α,11β-dimethyl-17β-hydroxyestra-4,14-dien-3-one] | ~1.96 |  | 
CCCCCCCCCCC(=O)O[C@H]1CC=C2[C@H]3[C@H]([C@@H](C)C[C@@]21C)[C@H]1CCC(=O)C=C1C[C@H]3C [Compound IV, 7α,11β-dimethyl-17β-hydroxyestra-4,14-dien-3-one 17-undecanoate] |  |  | oral androgenic activity, times as potent as methyltestosterone (ventral prostate weight [1]): about two to about nine times; duration of activity on parenteral administration (summary in words) (ventral prostate weight [3]; parenteral administration, relative to other actives): not long-acting
CCCCC1CCC(C(=O)O[C@H]2CC=C3[C@H]4[C@H]([C@@H](C)C[C@@]32C)[C@H]2CCC(=O)C=C2C[C@H]4C)CC1 (stereo partly drawn) [Compound V, 7α,11β-dimethyl-17β-hydroxyestra-4,14-dien-3-one 17β-4-n-butylcyclohexanecarboxylate] |  |  | oral androgenic activity, times as potent as methyltestosterone (ventral prostate weight [1]): about six to about eighteen times; ventral prostate weight over time after single subcutaneous injection (in words) (ventral prostate weight [3]; 0.6 mg in 0.2 ml aqueous vehicle): most dramatic increases and maintenance of ventral prostate weight; AUC of ventral prostate weight, times greater than for testosterone enanthate in oily carrier (ventral prostate weight [3]; active in aqueous vehicle versus testosterone enanthate in sesame oil/oily carrier, single subcutaneous 0.6 mg): about 3 times; area under the curve (AUC, trapezoidal rule) of ventral prostate weight (ventral prostate weight [3]; single subcutaneous 0.6 mg in aqueous vehicle): 1521 mg-weeks
CCCCC1CCC(C(=O)OC2CCCC3C4C(C)CC5=CC(=O)CCC5(C)C4CCC23C)CC1 [D, 7α-Methyl-D-homo-testosterone-17β-bucyclate] |  | 36.4–61.7^3 | 
CCCCCCC(=O)O[C@H]1CC[C@H]2[C@@H]3CCC4=CC(=O)CC[C@]4(C)[C@H]3CC[C@]12C [testosterone enanthate, reference compound] |  |  | area under the curve (AUC, trapezoidal rule) of ventral prostate weight (ventral prostate weight [3]; single subcutaneous 0.6 mg in oily carrier): 513 mg-weeks
